Results from patent US5744462A, “Steroids useful as anti-cancer and anti-obesity agents” (Research Corporation Technologies, Inc., priority 1995, dated 1998).

How the values were obtained:
[1] = mouse, in vivo; cited from earlier work
[2] = mouse, in vivo; cited from earlier work; remark: listed apart in the source
[3] = test system: mammalian glucose-6-phosphate dehydrogenase (G6PDH); conditions: cited from earlier work
[4] = test system: mouse skin DNA; assay: (3H) DMBA binding to skin DNA; assay type: in vivo, mouse (A/J); conditions: for effect on 3H-DMBA binding to skin DNA: mice
[5] = cited from earlier work
[6] = Anti-obesity action, body weight, female Balb/c mice; assay type: in vivo, mouse (female Balb/c); conditions: 0.25% in diet
Procedure: Female Balb/c (8 weeks old) mice were obtained from
the Jackson Laboratory and were housed in polycarbonate cages
(6 mice/cage) in animal quarters maintained at 24 ± 1° C. with
12 hours of light and 12 hours of darkness each day. One
week after arrival, the mice were placed on a diet containing
either DHEA, 8354, or without steroid. Animals were weighed

[7] = test system: cultured rat kidney epithelial cell line; conditions: cited from earlier work
[8] = Anti-obesity action, body weight, male A/J mice; assay type: in vivo, mouse (male A/J); conditions: 0.45% in diet
Procedure: Male A/J (5 weeks old) mice were obtained from the
Jackson Laboratory and were housed in polycarbonate cages (6
mice/cage) in animal quarters maintained at 24 ± 1° C. with 12
hours of light and 12 hours of darkness each day. One week
after arrival, the mice were placed on a diet containing
either DHEA, 8353, or without steroid. Animals were weighed

[9] = test system: many different cell lines; conditions: 10^-5 M to 10^-4 M; cited from earlier work
[10] = target: purified bovine adrenal G6PDH (Bos taurus, UniProt F1MMK2); assay: G6PDH inhibition test; assay type: biochemical; conditions: individual determinations
Description: The compound listed below are screened as inhibitors of purified bovine adrenal G6PDH activity as one predictor of cancer preventive action. The assay for testing the inhibition of purified bovine adrenal G6PDH is according to the procedure by Oertell, G. W. and Rebelein, I. in Biochem. Biophys. Acta, 184, 459-460 (1969).

purified bovine adrenal G6PDH, sequence (F1MMK2 31-70): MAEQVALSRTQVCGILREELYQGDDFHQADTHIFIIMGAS
purified bovine adrenal G6PDH, sequence (F1MMK2 101-575): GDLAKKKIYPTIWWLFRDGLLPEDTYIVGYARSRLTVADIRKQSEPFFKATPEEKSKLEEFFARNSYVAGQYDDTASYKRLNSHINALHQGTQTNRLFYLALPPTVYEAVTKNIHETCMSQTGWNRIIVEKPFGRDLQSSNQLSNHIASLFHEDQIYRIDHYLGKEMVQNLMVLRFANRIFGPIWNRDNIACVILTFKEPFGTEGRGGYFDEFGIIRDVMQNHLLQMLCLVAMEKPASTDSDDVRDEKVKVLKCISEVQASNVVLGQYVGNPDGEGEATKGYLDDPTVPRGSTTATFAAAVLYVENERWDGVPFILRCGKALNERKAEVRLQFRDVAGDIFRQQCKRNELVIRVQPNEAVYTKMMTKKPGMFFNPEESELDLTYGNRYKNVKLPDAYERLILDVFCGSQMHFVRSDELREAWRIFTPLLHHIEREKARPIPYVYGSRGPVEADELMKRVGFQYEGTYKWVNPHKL

## C[C@]12CC[C@H](O)CC1=CC[C@@H]1[C@@H]2CC[C@]2(C)C(=O)CC[C@@H]12 [DHEA, Dehydroepiandrosterone]
[1]
  anti-hypercholesterolemic effect: anti-hypercholesterolemic effect
[2]
  hypoglycemic effect: marked hypoglycemic effect
[3]
  inhibition of mammalian G6PDH: potent non-competitive inhibitor
[4]; 400 ug topical one hour before DMBA, ad libitum fed 116 ± 5.2
  SPECIFIC ACTIVITY, (3H) DMBA binding to skin DNA: 66 ± 13 cpm/ug DNA
[4]; four weeks, 400 mg/kg
  effect on 3H-DMBA binding to skin DNA: does inhibit ^3 H-DMBA binding to skin DNA
[4]; oral, doses well below 400 mg/kg
  effect on 3H-DMBA binding to skin DNA: inactive
[4]; single administration, 400 mg/kg
  effect on 3H-DMBA binding to skin DNA: does not inhibit ^3 H-DMBA binding to skin DNA
[4]; topical, in words (Table 4)
  effect on rate of binding of 3H-DMBA to skin DNA: inhibits the rate of binding
[5]; 0.6%, 20-22 weeks, after 4 injections of carcinogen
  enzyme-positive premalignant foci in the liver: inhibited the formation of enzyme-positive premalignant foci in the liver
[5]; after carcinogen
  liver basophilic lesions, enzyme-negative: promoted the development of liver basophilic lesions which were enzyme-negative
[6]; week 0, control 17.5 ± 1.4
  mean weekly weight ± S.D.: 17.5 ± 1.5 grams
[6]; week 1, control 19.9 ± 1.2
  mean weekly weight ± S.D.: 20.0 ± 0.9 grams
[6]; week 2, control 20.6 ± 1.0
  mean weekly weight ± S.D.: 20.6 ± 0.9 grams
[6]; week 3, control 21.8 ± 0.8
  mean weekly weight ± S.D.: 21.3 ± 1.3 grams
[7]
  capacity of TPA to stimulate 3H-thymidine incorporation: antagonizes
[8]; week 0, control 23 ± 1.5
  mean weekly weight ± S.D.: 23.0 ± 1.5 grams
[8]; week 1, control 25.0 ± 1.6
  mean weekly weight ± S.D.: 22.8 ± 1.5 grams
[8]; week 2, control 27.0 ± 1.6
  mean weekly weight ± S.D.: 19.0 ± 1.5 grams
[8]; week 3, control 27.3 ± 1.6
  mean weekly weight ± S.D.: 21.5 ± 1.1 grams
[8]; week 4, control 27.5 ± 1.9
  mean weekly weight ± S.D.: 21.4 ± 1.2 grams
[9]
  growth of cell lines in culture: slows the growth of many different cell lines in culture
[10]; 10^-5 M
  Percent Inhibition of G6PDH: 57%
[10]; 10^-5 M, read-out: Percent Inhibition of G6PDH
  inhibition at 10 µM: 53%
[10]; 10^-6 M, read-out: Percent Inhibition of G6PDH
  inhibition at 1 µM: 17%
